Data published in ChEMBL document CHEMBL1201862, “PubChem BioAssay data set” (2004).
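Results reflect a 48-hour exposure of cells in 96-well plates to compound at five concentrations. The concentration for 50% growth inhibition is given as GI50.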 The source made the active and inactive calls. Cut-off read from the data, not from the text of the source: active = GI50 up to about 1.1 µM and inactive = higher.

Key:
Assay in all cases: inhibition of tumour cell growth, NCI panel, 48 h
A498 = system: A498
BT-549 = system: BT-549
HCC 2998 = system: HCC 2998
K562 = system: K562
SK-OV-3 = system: SK-OV-3
CAKI-1 = system: CAKI-1
SF-268 = system: SF-268
OVCAR-3 = system: OVCAR-3
U-251 = system: U-251
MCF7 = system: MCF7
KM12 = system: KM12
OVCAR-8 = system: OVCAR-8
SK-MEL-2 = system: SK-MEL-2
SF-539 = system: SF-539
HL-60 = system: HL-60
MDA-MB-435 = system: MDA-MB-435
OVCAR-4 = system: OVCAR-4
NCI-H522 = system: NCI-H522
786-0 = system: 786-0
SF-295 = system: SF-295
Hs-578T = system: Hs-578T
HT-29 = system: HT-29
NCI-H460 = system: NCI-H460
UO-31 = system: UO-31
SN12C = system: SN12C
HCT-116 = system: HCT-116
RPMI-8226 = system: RPMI-8226
SNB-19 = system: SNB-19
SK-MEL-28 = system: SK-MEL-28
MDA-N = system: MDA-N
PC-3 = system: PC-3
EKVX = system: EKVX
HOP-62 = system: HOP-62
SR = system: SR
UACC-257 = system: UACC-257
COLO 205 = system: COLO 205
Malme-3M = system: Malme-3M
NCI-H226 = system: NCI-H226
MDA-MB-231 = system: MDA-MB-231
NCI-H23 = system: NCI-H23
TK-10 = system: TK-10
SK-MEL-5 = system: SK-MEL-5
M14 = system: M14
MOLT-4 = system: MOLT-4
NCI/ADR-RES = system: NCI/ADR-RES
UACC-62 = system: UACC-62
IGROV-1 = system: IGROV-1
SNB-75 = system: SNB-75
LOX IMVI = system: LOX IMVI
SW-620 = system: SW-620
HCT-15 = system: HCT-15
DU-145 = system: DU-145
ACHN = system: ACHN
RXF 393 = system: RXF 393
CCRF-CEM = system: CCRF-CEM
A549 = system: A549
OVCAR-5 = system: OVCAR-5
HOP-92 = system: HOP-92
T47D = system: T47D

O=C(c1no[n+]([O-])c1C(=O)c1csc2ccccc12)c1csc2ccccc12
GI50 (A498): 15000 nM (inactive) | GI50 (BT-549): 6550 nM (inactive) | GI50 (HCC 2998): 4600 nM (inactive) | GI50 (K562): 1520 nM (inactive) | GI50 (SK-OV-3): 16100 nM (inactive) | GI50 (CAKI-1): 820 nM (active) | GI50 (SF-268): 6270 nM (inactive) | GI50 (OVCAR-3): 1860 nM (inactive) | GI50 (U-251): 9950 nM (inactive) | GI50 (MCF7): 4410 nM (inactive) | GI50 (KM12): 6950 nM (inactive) | GI50 (OVCAR-8): 3090 nM (inactive) | GI50 (SK-MEL-2): 6680 nM (inactive) | GI50 (SF-539): 2610 nM (inactive) | GI50 (HL-60): 24.6 nM (active) | GI50 (MDA-MB-435): 8930 nM (inactive) | GI50 (OVCAR-4): 2860 nM (inactive) | GI50 (NCI-H522): 652 nM (active) | GI50 (786-0): 270 nM (active) | GI50 (SF-295): 14600 nM (inactive) | GI50 (Hs-578T): 10200 nM (inactive) | GI50 (HT-29): 3640 nM (inactive) | GI50 (NCI-H460): 13200 nM (inactive) | GI50 (UO-31): 505 nM (active) | GI50 (SN12C): 4370 nM (inactive) | GI50 (HCT-116): 8850 nM (inactive) | GI50 (RPMI-8226): 521 nM (active) | GI50 (SNB-19): 16900 nM (inactive) | GI50 (SK-MEL-28): 4090 nM (inactive) | GI50 (MDA-N): 8690 nM (inactive) | GI50 (PC-3): 3130 nM (inactive) | GI50 (EKVX): 3550 nM (inactive) | GI50 (HOP-62): 9330 nM (inactive) | GI50 (SR): 106 nM (active) | GI50 (UACC-257): 4920 nM (inactive) | GI50 (COLO 205): 3060 nM (inactive) | GI50 (Malme-3M): 3190 nM (inactive) | GI50 (NCI-H226): 12900 nM (inactive) | GI50 (MDA-MB-231): 5640 nM (inactive) | GI50 (NCI-H23): 14100 nM (inactive) | GI50 (TK-10): 1990 nM (inactive) | GI50 (SK-MEL-5): 12800 nM (inactive) | GI50 (M14): 9040 nM (inactive) | GI50 (MOLT-4): 678 nM (active) | GI50 (NCI/ADR-RES): 15600 nM (inactive) | GI50 (UACC-62): 10900 nM (inactive) | GI50 (IGROV-1): 1400 nM (inactive) | GI50 (SNB-75): 15100 nM (inactive) | GI50 (LOX IMVI): 1250 nM (inactive) | GI50 (SW-620): 2210 nM (inactive) | GI50 (HCT-15): 4570 nM | GI50 (DU-145): 17900 nM (inactive) | GI50 (ACHN): 4540 nM (inactive) | GI50 (RXF 393): 7190 nM (inactive) | GI50 (CCRF-CEM): 83.4 nM (active) | GI50 (A549): 10000 nM (inactive) | GI50 (OVCAR-5): 18300 nM (inactive) | GI50 (HOP-92): 2160 nM (inactive) | GI50 (T47D): 5960 nM (inactive)

COc1ccc2c(c1)-c1nc(=S)n(CCCN(C)C)c3ccc([N+](=O)[O-])c(c13)N2
GI50 (A498): 4090 nM (inactive) | GI50 (BT-549): 7210 nM (inactive) | GI50 (HCC 2998): 1500 nM (inactive) | GI50 (K562): 454 nM (active) | GI50 (SK-OV-3): 1110 nM (active) | GI50 (CAKI-1): 1680 nM (inactive) | GI50 (SF-268): 617 nM (active) | GI50 (OVCAR-3): 1590 nM (inactive) | GI50 (U-251): 592 nM (active) | GI50 (MCF7): 437 nM (active) | GI50 (KM12): 543 nM (active) | GI50 (OVCAR-8): 456 nM (active) | GI50 (SK-MEL-2): 14700 nM (inactive) | GI50 (SF-539): 589 nM (active) | GI50 (HL-60): 26.9 nM (active) | GI50 (MDA-MB-435): 1970 nM (inactive) | GI50 (OVCAR-4): 1130 nM (inactive) | GI50 (NCI-H522): 766 nM (active) | GI50 (786-0): 279 nM (active) | GI50 (SF-295): 1810 nM (inactive) | GI50 (Hs-578T): 1720 nM (inactive) | GI50 (HT-29): 261 nM (active) | GI50 (NCI-H460): 358 nM (active) | GI50 (UO-31): 490 nM (active) | GI50 (SN12C): 582 nM (active) | GI50 (HCT-116): 224 nM (active) | GI50 (RPMI-8226): 693 nM (active) | GI50 (SNB-19): 800 nM (active) | GI50 (SK-MEL-28): 1130 nM (inactive) | GI50 (MDA-N): 815 nM (active) | GI50 (PC-3): 771 nM (active) | GI50 (EKVX): 805 nM (active) | GI50 (HOP-62): 451 nM (active) | GI50 (SR): 506 nM (active) | GI50 (UACC-257): 1220 nM (inactive) | GI50 (COLO 205): 656 nM (active) | GI50 (Malme-3M): 518 nM (active) | GI50 (NCI-H226): 1360 nM (inactive) | GI50 (MDA-MB-231): 687 nM (active) | GI50 (NCI-H23): 1080 nM (active) | GI50 (TK-10): 2800 nM (inactive) | GI50 (SK-MEL-5): 1140 nM (inactive) | GI50 (M14): 8260 nM (inactive) | GI50 (MOLT-4): 141 nM (active) | GI50 (NCI/ADR-RES): 1250 nM (inactive) | GI50 (UACC-62): 12100 nM (inactive) | GI50 (IGROV-1): 345 nM (active) | GI50 (SNB-75): 6320 nM (inactive) | GI50 (LOX IMVI): 530 nM (active) | GI50 (SW-620): 344 nM (active) | GI50 (HCT-15): 484 nM | GI50 (DU-145): 689 nM (active) | GI50 (ACHN): 296 nM (active) | GI50 (RXF 393): 471 nM (active) | GI50 (CCRF-CEM): 205 nM (active) | GI50 (A549): 363 nM (active) | GI50 (OVCAR-5): 611 nM (active) | GI50 (HOP-92): 2150 nM (inactive) | GI50 (T47D): 18700 nM (inactive)
